# Assay results taken from article PMC4448987, “A neuroligin-1-derived peptide stimulates phosphorylation of the NMDA receptor NR1 subunit and rescues MK-801-induced decrease in long-term potentiation and memory impairment” (Pharmacology Research & Perspectives, 2015).
# Test system: hippocampal slices, CA3-CA1 synapse (fEPSP slope)
# Test: LTP in acute hippocampal slices from mice injected s.c.
# Type: in vivo, C57BL/6N mice
# Settings: mice injected with neurolide-1 10 mg/kg s.c. 24 h and 1 h before sacrifice plus MK-801 0.1 mg/kg s.c.; slope 25-30 min after HFS vs before; mean ± SEM, n = 6
# Description: Juvenile C57BL/6N mice of both sexes (postnatal day 16–24; Taconic, Ejby, Denmark) were injected subcutaneously (s.c.) with 10 mg/kg of the neurolide-1 peptide solution (10 mg/mL) and again 23 h later with 10 mg/kg of the neurolide-1 peptide solution (10 mg/mL) and 0.1 mg/kg MK-801 solution (0.025 mg/mL). Mice receiving the injection with the MK-801 solution only or untreated mice served as control groups. The young mice were rapidly and humanely euthanized with a minimum of distress by decapitation at a time point corresponding to 24 h after first injection. Preceding anesthetic was omitted to preserve the tissue free of drug residues and brain slice functions as unaltered as possible when performing the physiological measurements. After decapitation, the brain was removed. […]
# Measurements were made in oxygenated aCSF at room temperature (1.1 mL/min). […] The field potential in the stratum radiatum of the CA1 area of the hippocampus was recorded with an extracellular glass microelectrode (4–6 MΩ, filled with aCSF), positioned at least 500 μm away from the stimulation electrode. […]
sequence,measurement,value
SEGNRWSNSTKGLFQRA [neurolide-1],increase of fEPSP slope after high-frequency stimulation (LTP),57 ± 12%
